Test results as given in patent US20130059787A1, “METHODS OF USING HUMAN PROTEIN KINASE C DELTA VIII AS A BIOMARKER” (UNITED STATES DEPARTMENT OF VETERAN AFFAIRS, priority 2010, published 2013).

Columns and labels:
APP/PS1 transgenic mice = conditions: RA treatment; cited from earlier work
SF2/ASF (SRp30a) = assay: Western blot of NT2 whole cell lysates with specific antibodies; type: cell-based, human; conditions: RA about 10 μM, about 24 h; NT2 cells
Protocol: (§1) FIG. 6 is a series of images illustrating the detection of SR proteins involved in RA-mediated PKXδVIII expression. NT2 cells were treated with RA (about 10 μM) for about 24 h or without RA (control), and Western blot analysis was performed on whole cell lysates using (a) mAb104 antibody that detects all SR proteins and (b) specific antibodies as indicated in the figure. Molecular masses are indicated (kDa).
(§2) Cell lysates (about 40 μg) were separated on 10% SDS-PAGE. […] In apoptotic cells, PARP is cleaved by caspase 3 into an 85 kDa fragment which is detected in addition to the 116 KDa fragment using anti-PARP antibody in western blot analysis. […] (Putt K S, Beilman G J, and H. P J., Direct quantitation of poly(ADP-ribose) polymerase (PARP) activity as a means to distinguish necrotic and apoptotic death in cell and tissue samples. Chembiochem, 2005. 6: p. 53-55)
(§3) (SR) proteins that bind to exonic or intronic splicing enhancers (ESE, ISE) on the pre-mRNA. […] NT2 cells were treated with or without RA (about 24 h), and whole cell lysates were analyzed by Western blot analysis using mAb104 antibody that simultaneously detects the phosphoepitopes on all SR proteins. […]

SC35 (SRp30b) = assay: as above; type: cell-based, human; conditions: RA about 10 μM, about 24 h; NT2 cells
Protocol: as §1, §2, §3

PKCδ promoter = assay: pGlow-PKCδ promoter reporter transfected into NT2 cells; type: cell-based, human; conditions: RA treatment
Source text: Computational analysis of PKCδ promoter indicated putative RAREs. pGlow-PKCδ promoter (gift from Dr. Stuart H. Yuspa, NCI) was transfected into NT2 cells to determine if RA regulates transcription of the PKCδ gene via RARE on the PKCδ promoter region. […] This was verified by western blot analysis using GFP antibody to confirm up-regulation of PKCδ promoter by ATRA treatment.

Bcl-2 = assay: Apoptosis micro-array (SuperArray, real-time RT-PCR) in NT2 cells; type: cell-based, human; conditions: RA about 24 h vs control
Source text: (§4) FIG. 4 is a 3D profile of the results from the apoptosis micro-array. The graph represents an average of control and RA (1 day) samples carried out in triplicate. The average ΔCt=Ct(gene of interest)−Ct(housekeeping gene).
(§5) The inventors have shown that retinoic acid increases the levels of PKCδVIII in NT2 cells. An apoptosis micro-array (SuperArray, catalog #PAHS-012A) was used to determine the profiles of proteins associated with the apoptotic cascade. RNA was isolated from control and RA (about 24 h) treated NT2 cells and used in the analysis. Real-time RT-PCR was performed according to the manufacturers' protocol and data was analyzed by SuperArray software (FIG. 4). The inventors observed about a 6-fold increase in Bcl-2 levels which were concurrent with an increase in PKCδVIII levels following RA treatment.

Mcl-1 = assay: as above; type: cell-based, human; conditions: RA about 24 h vs control
Source text: as §4, §5

A1 = assay: as above; type: cell-based, human; conditions: RA about 24 h vs control
Source text: as §4, §5

## CC1=C(/C=C/C(C)=C/C=C/C(C)=C/C(=O)O)C(C)(C)CCC1 [RA, all-trans-retinoic acid]
APP/PS1 transgenic mice
  APP phosphorylation and processing: decreased
  Aβ deposition: decreased
  activation of microglia and astrocytes: decreased
  neuronal degeneration: attenuated
  spatial learning and memory: improved
  tau phosphorylation: decreased
SF2/ASF (SRp30a)
  SF2/ASF (SRp30a) expression: remained relatively constant
SC35 (SRp30b)
  SC35 (SRp30b) expression: increase
PKCδ promoter
  fluorescence of pGlow-PKCδ promoter compared to control samples: four-fold increase
Bcl-2
  increase in Bcl-2 levels: ~6 fold
Mcl-1
  Mcl-1 levels: Moderate increases
A1
  A1 levels: Moderate increases
